We go through 44 compounds from US12581252B2, “Substituted pyrrolo[3,4-b]pyridines as PI3K-α inhibitors” (Relay Therapeutics, Inc., priority 2020, dated 2026).

A value given as a limit tells only on which side of the number the result lay.

In the test the target is H1047R PIK3CA enzyme (Homo sapiens, UniProt P42336, H1047R). As to the kind of experiment: ADP-Glo Biochemical PIK3CA Kinase Assay.
Chain of H1047R PIK3CA enzyme (P42336 whole entry H1047R): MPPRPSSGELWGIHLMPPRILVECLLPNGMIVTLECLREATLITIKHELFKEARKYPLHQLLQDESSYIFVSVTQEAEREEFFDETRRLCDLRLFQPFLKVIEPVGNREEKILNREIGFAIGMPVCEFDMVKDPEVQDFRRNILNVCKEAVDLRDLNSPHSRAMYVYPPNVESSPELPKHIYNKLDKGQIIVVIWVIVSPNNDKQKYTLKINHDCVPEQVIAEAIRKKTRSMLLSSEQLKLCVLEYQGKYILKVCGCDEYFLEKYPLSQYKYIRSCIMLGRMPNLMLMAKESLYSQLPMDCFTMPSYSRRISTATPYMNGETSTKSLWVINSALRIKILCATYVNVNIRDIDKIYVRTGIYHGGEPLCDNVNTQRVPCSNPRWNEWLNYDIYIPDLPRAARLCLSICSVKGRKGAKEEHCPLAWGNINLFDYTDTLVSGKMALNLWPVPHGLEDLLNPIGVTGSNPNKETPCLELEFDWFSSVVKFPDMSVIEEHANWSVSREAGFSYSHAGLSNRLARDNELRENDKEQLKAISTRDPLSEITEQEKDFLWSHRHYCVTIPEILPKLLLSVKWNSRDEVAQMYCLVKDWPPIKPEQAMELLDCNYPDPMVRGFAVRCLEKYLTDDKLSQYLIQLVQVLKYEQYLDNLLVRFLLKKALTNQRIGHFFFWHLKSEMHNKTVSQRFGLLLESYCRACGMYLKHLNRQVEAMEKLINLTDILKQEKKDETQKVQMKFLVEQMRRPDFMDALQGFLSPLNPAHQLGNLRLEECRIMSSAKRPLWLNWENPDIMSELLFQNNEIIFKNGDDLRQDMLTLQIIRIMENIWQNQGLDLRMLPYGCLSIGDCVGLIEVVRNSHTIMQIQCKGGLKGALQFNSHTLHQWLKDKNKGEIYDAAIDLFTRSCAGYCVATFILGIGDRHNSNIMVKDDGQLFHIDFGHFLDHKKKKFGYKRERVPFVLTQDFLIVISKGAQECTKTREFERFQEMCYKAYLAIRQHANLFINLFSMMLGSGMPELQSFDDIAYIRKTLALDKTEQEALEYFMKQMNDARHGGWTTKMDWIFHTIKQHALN
Chain of H1047R PIK3CA enzyme (P27986 whole entry partner): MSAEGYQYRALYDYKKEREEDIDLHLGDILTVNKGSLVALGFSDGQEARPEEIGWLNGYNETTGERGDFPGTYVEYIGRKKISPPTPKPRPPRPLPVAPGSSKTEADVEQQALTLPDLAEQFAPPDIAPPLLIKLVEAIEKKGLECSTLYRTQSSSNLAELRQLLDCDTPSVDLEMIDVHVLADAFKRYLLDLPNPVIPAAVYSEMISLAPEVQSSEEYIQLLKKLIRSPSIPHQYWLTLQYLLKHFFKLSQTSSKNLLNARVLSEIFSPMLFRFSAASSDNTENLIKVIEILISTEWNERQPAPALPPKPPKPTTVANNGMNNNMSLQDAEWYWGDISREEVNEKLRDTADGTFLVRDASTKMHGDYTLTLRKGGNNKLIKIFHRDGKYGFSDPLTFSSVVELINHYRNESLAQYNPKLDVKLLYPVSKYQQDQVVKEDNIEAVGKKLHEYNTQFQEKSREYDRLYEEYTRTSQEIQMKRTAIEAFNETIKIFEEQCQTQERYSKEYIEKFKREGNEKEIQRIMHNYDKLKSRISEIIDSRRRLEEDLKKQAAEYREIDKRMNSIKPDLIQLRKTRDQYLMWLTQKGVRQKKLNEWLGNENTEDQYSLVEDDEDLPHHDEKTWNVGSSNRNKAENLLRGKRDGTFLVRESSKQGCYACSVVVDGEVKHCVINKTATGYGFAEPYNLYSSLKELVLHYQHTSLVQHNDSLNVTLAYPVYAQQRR
Broadly, the IC50 is the concentration that inhibits the measured activity by half. The low end stands for higher potency, the high end for lower potency. `O=C(Nc1cccc2c1C(c1cc(F)ccc1Cl)NC2=O)c1ncc(Br)s1` (centres unmarked) [Compound I-2112]: the half-inhibitory concentration (IC50) was in the range of 10000 to 100000 nM.
Take `O=C(Nc1cccc2c1C(N1CCC(F)(F)CC1)NC2=O)c1cc(F)cc(C(F)(F)F)c1` (centres unmarked) [Compound I-2077]: the 50% inhibitory concentration (IC50) was in the range of 1000 to 10000 nM.
In turn, `N#CCn1cc(-c2cc(NC(=O)c3cc(F)cc(C(F)(F)F)c3)c3c(c2)C(=O)NC3c2cc(F)ccc2Cl)cn1` (centres unmarked) [Compound I-1420] registered an IC50 of no more than 100 nM.
Then `O=C(Nc1cccc2c1C(c1cc(F)ccc1Cl)NC2=O)c1cc(F)cc(B(O)O)c1` (centres unmarked) [Compound I-2087], with 10000 to 100000 nM; and `Cc1ccccc1S(=O)(=O)Cc1cc(NC(=O)c2cc(F)cc(C(F)(F)F)c2)c2c(c1)C(=O)NC2c1cc(F)ccc1Cl` (centres unmarked) [Compound I-1433], with no more than 100 nM; and `O=C(Nc1cc(-c2ccc3ncnn3c2)cc2c1[C@H](c1cc(F)ccc1Cl)NC2=O)c1cc(F)c(F)c(Cl)c1` (stereo in doubt) [Compound I-1173], with no more than 100 nM.
Take `Cc1ccccc1[C@H]1NC(=O)c2c(C(N)=O)ccc(NC(=O)c3cc(F)cc(C(F)(F)F)c3)c21` [Compound I-509]: the IC50 fell in the range of 100 to 500 nM.
Then `Cn1c(Nc2cccc3c2C(c2cc(F)ccc2Cl)NC3=O)nnc1C1CC1` (centres unmarked) [Compound I-880], with 10000 to 100000 nM; and `Cc1ccccc1[C@@H]1NC(=O)c2nccc(NC(=O)N3C[C@H](C)c4ccccc43)c21` (single isomer, unassigned) [Compound I-300], with 100 to 500 nM; and `C[C@@]1(C(=O)Nc2cc(Br)cc3c2[C@@H](c2cc(F)ccc2Cl)NC3=O)CCC[C@H](C(F)(F)F)C1` (single isomer, unassigned) [Compound I-2264], with 100 to 500 nM.
In the case of `O=C(Nc1cc(Br)cc2c1C(c1cc(F)ccc1Cl)NC2=O)c1ccc(F)cc1` (centres unmarked) [Compound I-525], the 50% inhibitory concentration (IC50) fell in the range of 10000 to 100000 nM.
The compound `O=C1NC(c2cc(F)c(F)cc2Cl)c2c(NC(=O)c3nsc4ccccc34)cccc21` (centres unmarked) [Compound I-159] registered a half-maximal inhibitory concentration (IC50) of no more than 100 nM.
With `O=C1N[C@@H](c2cc(F)ccc2Cl)c2c(NC(=O)N3C[C@](O)(C(F)(F)F)c4ccccc43)cccc21` (single isomer, unassigned) [Compound I-2384], the 50% inhibitory concentration (IC50) is 1000 to 10000 nM.
With `O=C1NC(c2cc(F)ccc2Cl)c2c(NC(=O)C3CCCc4ccccc4C3)cccc21` (mixture of isomers) [Compound I-2375], the half-inhibitory concentration (IC50) lay in the range of 10000 to 100000 nM.
Take `O=C(CCC(F)(F)F)Nc1cccc2c1[C@@H](c1cc(F)ccc1Cl)NC2=O` [Compound I-2119]: the IC50 fell in the range of 10000 to 100000 nM.
As for `N#C[C@H]1C[C@H](c2cc(NC(=O)c3cc(F)cc(C(F)(F)F)c3)c3c(c2)C(=O)N[C@@H]3c2cc(F)ccc2Cl)C1` (single isomer, unassigned) [Compound I-1325], the figure is 100 to 500 nM.
Take `O=C(COc1ccccc1)Nc1cc(-c2ccc3ncnn3c2)cc2c1C(c1cc(F)ccc1Cl)NC2=O` (centres unmarked) [Compound I-1688]: the IC50 lay within 10000 to 100000 nM.
As to `Cn1cc(-c2cc(NC(=O)c3cc(F)cc(Cl)c3)c3c(n2)C(=O)NC3c2cc(F)ccc2Cl)ccc1=O` (centres unmarked) [Compound I-456], the IC50 is no more than 100 nM.
`Cc1ccccc1C1NC(=O)c2cccc(NC(=O)c3cc(C(F)(F)F)ccn3)c21` (centres unmarked) [Compound I-337]: the half-maximal inhibitory concentration (IC50) lay in the range of 10000 to 100000 nM.
Then `Cc1ccccc1C1NC(=O)c2cccc(NC(=O)c3nsc4ccc(F)cc34)c21` (centres unmarked) [Compound I-105], with 100 to 500 nM; and `CC(=O)Nc1cccc2c1C(c1cc(F)ccc1Cl)NC2=O` (centres unmarked) [Compound I-1581], with 10000 to 100000 nM; and `O=C1NC(c2cc(F)ccc2Cl)c2c(NC(=O)N3CC(C(F)(F)F)CC(C(F)(F)F)C3)cc(Br)cc21` (racemic) [Compound I-661], with 1000 to 10000 nM.
Compound `N#Cc1cccnc1-c1cc(NC(=O)c2cc(F)cc(C(F)(F)F)c2)c2c(c1)C(=O)NC2c1cc(F)ccc1Cl` (centres unmarked) [Compound I-1408] registered an IC50 of no more than 100 nM.
As for `O=C1NC(c2cc(F)ccc2Cl)c2c(Nc3nn(C4CC4)c4ccccc34)cc(-c3ccc4ncnn4c3)cc21` (centres unmarked) [Compound I-1809], the figure is 1000 to 10000 nM; as for `COc1cc(C(=O)Nc2cccc3c2C(c2ccccc2C)NC3=O)cc(F)c1F` (centres unmarked) [Compound I-317], 500 to 1000 nM; as for `CC1(O)CN(c2cc(NC(=O)c3cc(F)cc(C(F)(F)F)c3)c3c(n2)C(=O)NC3c2cc(F)ccc2Cl)C1` (centres unmarked) [Compound I-322], 100 to 500 nM.
Take `O=C(Nc1cc(Br)cc2c1C(c1cc(F)ccc1Cl)NC2=O)c1cc(Cl)cc(F)c1Cl` (centres unmarked) [Compound I-694]: the half-maximal inhibitory concentration (IC50) is 1000 to 10000 nM.
For `CS(=O)(=O)n1cc(-c2cc(NC(=O)c3cc(F)cc(C(F)(F)F)c3)c3c(c2)C(=O)NC3c2cc(F)ccc2Cl)cn1` (centres unmarked) [Compound I-1498], the half-inhibitory concentration (IC50) was no more than 100 nM.
Compound `O=C1NC(c2cc(F)ccc2Cl)c2c1cc(-c1ccc3ncnn3c1)cc2S(=O)(=O)Cc1ccccc1` (centres unmarked) [Compound I-1742] had a concentration for half-maximal inhibition (IC50) of 1000 to 10000 nM.
In the case of `Cc1ccccc1[C@@H]1NC(=O)c2nccc(NC(=O)N3CCc4ccccc43)c21` [Compound I-227], the IC50 is 100 to 500 nM.
Turning to `C[C@H](CCC(F)(F)F)C(=O)Nc1cccc2c1[C@H](c1cc(F)ccc1Cl)NC2=O` [Compound I-2139], the concentration for half-maximal inhibition (IC50) lay in the range of 10000 to 100000 nM.
As for `O=C1NC(c2cc(F)ccc2Cl)c2c(NC(=O)N3C[C@@H](O)[C@@H](O)C3)cc(-c3ccc4ncnn4c3)cc21` (some centres unmarked) [Compound I-1965], the figure is 10000 to 100000 nM.
Compound `Cc1ccccc1C1NC(=O)c2cccc(NC(=O)c3csc4ccncc34)c21` (centres unmarked) [Compound I-74] had an IC50 of 1000 to 10000 nM.
Turning to `O=C1NC(c2ccccc2Cl)c2c(NC(=O)c3cc(F)cc(C(F)(F)F)c3)cccc2O1` (centres unmarked) [Compound I-1274], the IC50 fell in the range of 500 to 1000 nM.
Then `O=C(Nc1cc(Br)cc2c1[C@H](c1ccccc1C(F)F)NC2=O)c1cc(F)cc(C(F)(F)F)c1` [Compound I-789], with no more than 100 nM.
Then `O=C(Nc1cc(-n2cccn2)cc2c1[C@@H](c1cc(F)ccc1Cl)NC2=O)c1cc(F)cc(C(F)(F)F)c1` [Compound I-1070], with 1000 to 10000 nM; and `O=C(Nc1cc(CCO)cc2c1C(c1cc(F)ccc1Cl)NC2=O)c1cc(F)cc(C(F)(F)F)c1` (centres unmarked) [Compound I-579], with no more than 100 nM; and `Nc1cc(NC(=O)c2cc(F)cc(C(F)(F)F)c2)cc2c1C(c1cc(F)ccc1C(F)F)NC2=O` (centres unmarked) [Compound I-269], with 10000 to 100000 nM.
Regarding `Cc1ccccc1C1NC(=O)c2cccc(NC(=O)C34CCC(CC3)CC4)c21` (centres unmarked) [Compound I-179, N-(1-Oxo-3-(o-tolyl)isoindolin-4-yl)bicyclo[2.2.2]octane-1-carboxamide], the concentration for half-maximal inhibition (IC50) was 1000 to 10000 nM.
Take `O=C(Nc1cc(CS(=O)(=O)c2ccccc2)cc2c1C(c1cc(F)ccc1Cl)NC2=O)c1cc(F)cc(C(F)(F)F)c1` (centres unmarked) [Compound I-1436]: the 50% inhibitory concentration (IC50) is no more than 100 nM.
Then `Cn1cc(-c2cc(NC(=O)c3cc(F)cc(C(F)(F)F)c3)c3c(c2)C(=O)NC3c2cc(F)ccc2Cl)ccc1=O` (centres unmarked) [Compound I-648], with no more than 100 nM; and `O=C(Nc1cccc2c1C(C1=CCCCC1)NC2=O)c1cc(F)cc(C(F)(F)F)c1` (centres unmarked) [Compound I-1629], with 1000 to 10000 nM; and `O=C1NC(c2cc(F)ccc2Cl)c2c(NC(=O)N3CCc4cc(OC(F)(F)F)ccc43)cccc21` (centres unmarked) [Compound I-2481], with 1000 to 10000 nM.
Turning to `O=C(Nc1cc(-c2cnc(C(O)CO)nc2)cc2c1C(c1cc(F)ccc1Cl)NC2=O)c1cc(F)cc(C(F)(F)F)c1` (centres unmarked) [Compound I-1542], the IC50 is no more than 100 nM.
